Test results published in US10597398B2, “Suppression and regeneration promoting effect of low molecular weight compound on cancer and fibrosis” (NATIONAL UNIVERSITY CORPORATION TOTTORI UNIVERSITY, priority 2015, dated 2020).

How the values were obtained:
liver fibrosis = assay: Non-alcoholic steatohepatitis model mouse (Azan staining); format: in vivo, C57BL/6JHamSlc-ob/ob male mice; conditions: high fat diet 12 weeks, drug for last 6 weeks, IC-2 21.2 mg/kg i.p. 3 times a week, vs vehicle group
Experimental: To induce anesthesia, 1-mL disposable syringe with a 27-G needle was used to intraperitoneally inject, into a mouse, 1 μL/g body weight of a systemic anesthetic somnopentyl (Kyoritsuseiyaku Corporation, Tokyo).
The liver tissue sample, as so resected, was fixed in 4% paraformaldehyde at room temperature for 16 h, embedded in paraffin, and sectioned with a microtome to prepare tissue sections. The tissue sections were subjected to deparaffinization using xylene (Nacalai tesque) and a hydration reaction with ethanol (Nacalai tesque), and were then allowed to stand in 5% potassium dichromate/trichloroacetic acid aqueous solution (Wako Pure Chemical Industries, Ltd.) for 20 min. After washing in running water for 5 min, the tissue sections were stained with Azocarmine G (Wako Pure Chemical Industries, Ltd.) at 60° C. for 1 h, washed with water, and then destained for 3 min in 5% aniline (Nacalai tesque)-containing ethanol solution. Next, 5% acetic acid (Nacalai tesque)-containing ethanol solution was used to stop the destaining reaction. After washing with water, the tissue sections were allowed to stand in 5% phosphotungstic acid aqueous solution (Alfa Aesar, Ward Hill, Mass.) for 1 h. […] The ratio of the blue-stained fiber area to the total tissue area of each photographed image was quantified to calculate a fibrosis-positive area ratio. […]

[1] = tested on: CD44-expressing HSC2 cells; assay: CD44-expressing cells in HSC2 cells (cell sorter analysis); format: cell-based, human; conditions: 48 h, 25 μM IC-2 or 0.5 μM 5-FU, 83.9% without treatment
Experimental: In addition, HSC2 cells were seeded at 5×10^5 cells/10-cm cell culture dish (TPP). After 24 h, the cells were treated with 0.5 μM of 5-FU or 25 μM of IC-2. Also prepared were cells without low-molecular-weight compound treatment (0 μM). After additional 48 h, the respective cells were harvested. As a primary antibody, used was a mouse anti-human CD44 antibody (Abcam Ltd., Cambridge, UK). Then, Alexa Fluor 488-labeled goat anti-mouse IgG (H+L) (Life Technologies Corp., Carlsbad, Calif.) was used. After that, a cell sorter BD bioscience FACS Aria (Becton, Dickinson and Company, Franklin Lakes, N.J.) was used for analysis.

O=C1C(Cc2ccccc2)N2C(=O)CCN(C(=O)NCc3ccccc3)C2CN1Cc1cccc2ccccc12 (centres unmarked) [IC-2]
fibrosis area (Azan staining) (liver fibrosis): decrease more than that of the vehicle group
percentage of CD44-expressing cells [1]: 71.4%
